According to patent publication US20040074447A1, “Methods of reducing incidence of stillborn pigs by using progesterone receptor antagonists” (priority 2002, published 2004):
“And” between values parts separate entries of the source, which are not always exact repeats. Identical values can stand only once. “Also recorded” adds a separate entry of the source. Like-named read-outs stand apart in the source and are kept apart here. Marks after values point to notes of the source that are not given here.

Key:
swine = conditions: cited from earlier work
[1] = tested on: pregnant crossbred female swine; type: in vivo
Text: The objectives of this study were to determine the effects of administration of the progesterone receptor antagonist CP161,258 on the concentration of progesterone, the time interval from the 1st administration of test article on day 112 to birth of the 1st pig, the time interval from the 2nd administration of test article to birth of the 1st pig, and the status of piglets at birth (alive, stillborn, mummies).
Animals. Twenty pregnant crossbred female swine were purchased and delivered to Terre Haute on approximately day 102-107 of gestation. These animals were placed in farrowing crates in building 608W. Animals assigned to T2 averaged 195 kg BW. Animals (sows and piglets) were euthanized within 48 hr post-farrowing or on day 116 post-mating. There was no estimate of pre-weaning mortality in this study.
Randomization of animals. Animals were ranked according to expected farrowing date and randomly assigned to treatment within blocks of 2 animals each.
Test article administration. […] For treatment group T2, test article was diluted to a concentration of 25 mg/ml in 50% propylene glycol and water, and stored refrigerated (2-8° C.). Test article was administered orally after the morning blood sample was collected. The volume administered was approximately 30 ml to deliver a dosage of 4 mg/kg BW. Animals were administered with approximately 30 ml of water following administration of test article.
Early/late farrowing. […] If animals farrowed before day 114, the final blood sample was collected after farrowing was complete.
(§1) Data/Analyses. Response variables measured in this study were: hours from the time of the 1st dosing on day 112 post-breeding to birth of the 1st pig, hours from the 2nd dosing on day 113 to birth of the 1st pig, number of piglets that were alive at birth (born alive), stillborn (normal appearance term piglet, but dead at time of birth), and mummies (smaller than littermates, decayed at birth). The variables were analyzed using a mixed model analysis (proc mixed, SAS) with block as a random effect and treatment as a fixed effect. Concentrations of progesterone were analyzed using a repeated measure mixed model analysis, with block as a random effect and treatment as a fixed effect.

[2] = tested on: pregnant crossbred female swine; experiment: Example 2: induction of farrowing in pregnant gilts, oral CP161,258 (two doses or single dose) or intramuscular porcine relaxin; type: in vivo; conditions: for Hr, Dose d 112 To 1st pig ± SD / Hr, Dose d 113 To 1st pig ± SD: mean ± SD; for Piglet data: Born alive / Piglet data: Mummies / Piglet data: Stillborn: mean; for Reason (animals with incomplete data) / Born Alive / Hr, 1st treatment to 1st pig / Mummies / Still-born: individual animals; for effects on time to birth of the first pig, number born alive, or stillborns: 1200 U porcine relaxin IM on day 113
Method: Animals. […] This BW was used to calculate the amount of test article to administer (T2 and T3).
Randomization of animals. Animals were ranked according to expected farrowing date and then randomly assigned to treatment within blocks of 4 animals each.
Test article administration. […] For treatment groups T2 and T3, test article was diluted (a suspension) to a concentration of 25 mg/ml in 50% propylene glycol and stored refrigerated (2-8° C.).
For treatment groups T2 and T3, animals were snared and test article was administered orally using a 60 ml syringe. […] One container of approximately 440 ml was mixed and used within each week of the 3 wk study. Each animal assigned to T2 or T3 also received approximately 30 ml of tap water to insure that test article was swallowed.
Porcine relaxin was diluted to a concentration of 1200 U/ml in sterile physiological saline on the first day of use. Diluted porcine relaxin was stored in a locked refrigerator and removed only when injections took place. Relaxin (1 ml-T4) was administered intramuscularly in the lower part of the ham of either leg with an 18-gauge, 1.5″ long needle attached to a 3 ml syringe.
Administration of test articles occurred between 7:30 am and 8:30 am on almost all days of the study.
Piglets. Response variables measured in this study were: hours from the 1st treatment to the birth of the 1st pig, number of piglets that were alive at birth (born alive), stillborn (normal appearance term piglet, but dead at time of birth), and mummies (smaller than littermates, decayed at birth). Animals were not processed (no iron shots, no clipping of needle teeth, no individual identification), but umbilical cords were clipped to […]. length if animals could not be euthanized within 2 days after birth.
Data/Analyses. […] Data were analyzed using a mixed model analysis with block as a random effect and treatment as a fixed effect (proc mixed, SAS).

progesterone in plasma = experiment: Example 1: progesterone in plasma by RIA around farrowing; type: in vivo, swine; conditions: for Mean concentration of progesterone in plasma: n in parentheses; for p4 = concentration of progesterone in plasma: trt 2, individual animals
Method: Blood samples. Blood samples were collected from all animals (including T1 and T2) prior to administration of test article at 7:30 am on days 112 and 113. In addition, a PM blood sample was collected beginning at approximately 1:30 pm on days 112 and 113. Additional blood samples were collected at 7:30 am and 1:30 pm on subsequent days (>or =day 114). The final blood sample was collected after farrowing was complete. All blood samples (7 ml) were collected using sodium heparin vacutainers. Samples were refrigerated, centrifuged, and plasma was separated within 2 hr after collection. One aliquot of each sample was sent to Cornell Veterinary Diagnostic Lab for progesterone analyses by RIA.
as §1

sheep = conditions: 5 or 10 mg/kg BW; cited from earlier work
[3] = relative to propranolol; cited from earlier work
sows in labor = conditions: 150 μg, sows in labor before birth of the first pig; cited from earlier work
[4] = 4 mg/kg BW orally days 112 and 113
[5] = T2: 4 mg/kg BW CP161,258 orally D 112 + 113, mean ± SD, n in parentheses
[6] = T2: 4 mg/kg BW orally D 112 + 113, mean per litter
[7] = T2: 4 mg/kg BW CP161,258 oral D 112 + 113, counted from (day 112)
[8] = T2: 4 mg/kg BW oral D 112 + 113
[9] = T3: 8 mg/kg BW CP161,258 oral D 113, counted from (day 113)
[10] = Treatment 2: 4 mg/kg oral days 112 and 113, 4 mg/kg
[11] = Treatment 3: 8 mg/kg oral day 113, 8 mg/kg
[12] = T4: 1200 U pRelaxin intramuscular day 113, counted from (day 113)
[13] = T4: 1200 U pRelaxin intramuscular day 113
[14] = Treatment 4: 1200 IU Relaxin intramuscular day 113

## CC#CC1(O)CCC2C3CCC4=CC(=O)CCC4=C3C(c3ccc(N(C)C)cc3)CC21C (stereo not shown) [CP161,258, 11-(4-Dimethylamino-phenyl)-17-hydroxy-13-methyl-17-prop-1-ynyl-1,2,6,7,8,11,12,13,14,15,16,17-dodecahydro-cyclopenta[a]phenanthren-3-one]
swine; 4 mg/kg body weight on days 111 and 112 post-breeding
  induction of parturition: effectively induced parturition
[1]; 4 mg/kg BW days 112 and 113 of gestation
  time interval from the 1st administration to the onset of parturition, relative to non-medicated controls: half
[1]; [4]
  number of piglets born dead (stillborns), mean: 0.1 pigs/litter
  percent of animals that farrowed the day following the first treatment (day 113, within 1 day): 44% and 45%
  percent of animals with onset of parturition within 2 days: 100%
  percent of treated animals that farrowed on day 114: 56%
[1]; [5]
  Hr, 1st dose d 112 To 1st pig ± SD: 36 ± 15 (9) Hr
  Hr, 2nd dose d 113 To 1st pig ± SD: 36 ± 15 (9) Hr
[1]; [6]
  Piglet data: Born alive: 8.9 (9)
  Piglet data: Mummies: 0 (9)
  Piglet data: Stillborn: 0.1* (9)
[1]; T2: 4 mg/kg orally days 112 and 113, individual animals
  Mummified fetuses: 0
[2]; [7]
  Hr, Dose d 112 To 1st pig ± SD: 45 ± 26^a (13) Hr
  Hr, Dose d 113 To 1st pig ± SD: 45 ± 26^b (13) Hr
[2]; [8]
  Piglet data: Born alive: 9.2 (13)
  Piglet data: Mummies: 0.4* (13)
  Piglet data: Stillborn: 0.7 (13)
[2]; T2: 4 mg/kg days 112 and 113, numerically, not statistically
  number of stillborns lower compared with T1 non-medicated controls: 0.4 pigs/litter
[2]; T2: 4 mg/kg on days 112 and 113 (4/13)
  percent of animals that started farrowing on day 114: 31%
[2]; T2: 4 mg/kg on days 112 and 113 (7/13)
  percent of animals that started farrowing on day 113: Fifty-four
[2]; T2 CP161,258 D 112 + 113
  Reason (animals with incomplete data): Dystocia
[2]; [9]
  Hr, Dose d 112 To 1st pig ± SD: 33 ± 20 (13) Hr
  Hr, Dose d 113 To 1st pig ± SD: 33 ± 20^c (13) Hr
[2]; T3: 8 mg/kg BW on day 113 (11/13)
  percent of animals that started farrowing on day 114: 85%
[2]; T3: 8 mg/kg BW oral D 113
  Piglet data: Born alive: 8.6 (13)
  Piglet data: Mummies: 0.2 (13)
  Piglet data: Stillborn: 0.5 (13)
[2]; T3: single dose 8 mg/kg BW day 113, numerically, not statistically
  number of stillborns reduced compared with T1 non-medicated controls: 0.6 pigs/litter
[2]; [10]
  Born Alive: 8 and 13 (2×) and 10 (3×) and 9 (2×) and 7 and 2 and 12 and 6 and 11
  Hr, 1st treatment to 1st pig: 22.5 h and 24.5 h and 26.4 h and 28.6 h and 28.9 h and 32.1 h and 33.6 h and 45.7 h and 46 h and 46.3 h and 49.1 h and 96.3 h and 101 h
  Mummies: 0 (9×) and 2 and 1 (3×)
  Still-born: 1 (9×) and 0 (4×)
[2]; [11]
  Born Alive: 6 (3×) and 13 and 12 and 10 (3×) and 7 and 14 and 11 and 4 and 3
  Hr, 1st treatment to 1st pig: 49 h and 96 h and 21.2 h and 23.7 h and 24.4 h and 24.5 h and 24.7 h and 25.1 h and 25.2 h and 25.3 h and 26.3 h and 27.1 h and 34.4 h and 93.8 h
  Mummies: 0 (10×) and 1 (3×)
  Still-born: 0 (8×) and 2 (2×) and 1 (3×)
[2]; single dose of 8 mg/kg BW
  percent of animals that farrowed 24 to 27 hr post-dosing: 70%
  percent of animals that farrowed between 21 and 35 hr after dosing: 85%
Progesterone in plasma; 4 mg/kg orally days 112 and 113
  concentrations of progesterone in plasma in the −24 hr period preceding parturition, compared to non-medicated controls: remained higher
Progesterone in plasma; Sample time 0 (immediately before farrowing), T2
  Mean concentration of progesterone in plasma: 7.5 (9) ng/ml
Progesterone in plasma; Sample time 1 (within 12 hr after farrowing was complete), T2
  Mean concentration of progesterone in plasma: 1.5 (9) ng/ml
Progesterone in plasma; Sample time −1 relative to farrowing, T2
  Mean concentration of progesterone in plasma: 12.3* (9) ng/ml
Progesterone in plasma; Sample time −2 relative to farrowing, T2
  Mean concentration of progesterone in plasma: 14.0* (8) ng/ml
Progesterone in plasma; Sample time −3 relative to farrowing, T2
  Mean concentration of progesterone in plasma: 14.5 (5) ng/ml
Progesterone in plasma; Sample time −4 relative to farrowing, T2 4 mg/kg orally days 112 and 113
  Mean concentration of progesterone in plasma: 14.2 (2) ng/ml
Progesterone in plasma; time 0 (immediately before farrowing)
  p4 = concentration of progesterone in plasma: 5.76 ng/mL and 8.12 ng/mL and 5.62 ng/mL and 9.45 ng/mL and 13.37 ng/mL and 4.95 ng/mL and 9.41 ng/mL and 5.64 ng/mL and 7.17 ng/mL
Progesterone in plasma; time 1 (within 12 hr after farrowing was complete)
  p4 = concentration of progesterone in plasma: 2.05 ng/mL and 1.34 ng/mL and 0.82 ng/mL and 1.62 ng/mL and 1.95 ng/mL and 4.50 ng/mL and 1.64 ng/mL and 1.11 ng/mL and 0.79 ng/mL
Progesterone in plasma; time −1
  p4 = concentration of progesterone in plasma: 8.27 ng/mL and 13.76 ng/mL and 13.88 ng/mL and 15.46 ng/mL and 18.89 ng/mL and 7.63 ng/mL and 8.18 ng/mL and 10.70 ng/mL and 16.70 ng/mL
Progesterone in plasma; time −2
  p4 = concentration of progesterone in plasma: 12.42 ng/mL and 17.27 ng/mL and 13.89 ng/mL and 15.47 ng/mL and 13.96 ng/mL and 15.17 ng/mL and 10.92 ng/mL and 17.76 ng/mL
Progesterone in plasma; time −3
  p4 = concentration of progesterone in plasma: 14.93 ng/mL and 13.88 ng/mL and 15.28 ng/mL and 14.66 ng/mL and 16.68 ng/mL
Progesterone in plasma; time −4
  p4 = concentration of progesterone in plasma: 15.25 ng/mL and 13.49 ng/mL

## C[C@]1(O)CC[C@H]2[C@@H]3CC[C@@]45O[C@]4(C)C(O)=C(C#N)C[C@]5(C)[C@H]3CC[C@@]21C [Epostane]
swine; oral, 5 or 10 mg/kg BW
  interval from oral administration to birth of the first pig: about 34 hr
sheep
  interval from oral administration to birth of lambs: 33 h

## CC(C)NCC(O)COc1cccc2[nH]c3ccccc3c12 (stereo not shown) [carazolol]
[3]
  membrane stabilizing potential, less than that of propranolol: 13 fold

## CC(C)(C)NCC(O)c1cc(Cl)c(N)c(Cl)c1 (stereo not shown) [clenbuterol]
Sows in labor
  delay of parturition: up to 15 hr

## Porcine relaxin
[2]
  effects on time to birth of the first pig, number born alive, or stillborns: not effective
[2]; listed as porcine relaxin
  effects on time to birth of the first pig, number born alive, or stillborns: did not have beneficial effects
[2]; [12]
  Hr, Dose d 112 To 1st pig ± SD: 56 ± 26 (13) Hr
  Hr, Dose d 113 To 1st pig ± SD: 56 ± 26^d (13) Hr
[2]; [13]
  Piglet data: Born alive: 6.4 (12)
  Piglet data: Mummies: 0.3 (12)
  Piglet data: Stillborn: 1.6 (12)
[2]; T4 Relaxin
  Reason (animals with incomplete data): Dystocia (born alive, stillborns, mummy count; also recorded: Dystocia-(born alive, stillborns, mummy count
[2]; [14]
  Born Alive: 6 (3×) and 3 and 8 and 4 (2×) and 9 (2×) and 1 and 14 and 7
  Hr, 1st treatment to 1st pig: 10.9 h and 25.3 h and 34.2 h and 47.4 h and 48.5 h and 49.2 h and 49.7 h and 51 h and 69.9 h and 74.9 h and 77.2 h and 82.4 h and 106.3 h
  Mummies: 2 and 0 (10×) and 1
  Still-born: 5 and 0 (2×) and 1 (4×) and 2 (5×)
